Drawing on patent publication US20110220154A1, “Dental Appliance Cleanser” (priority 2008, published 2011), this text covers antimicrobial activity for 1 compound.

This experiment concerns Candida albicans. In words: in vitro suspension test representing in-use conditions. The following applies: 5 min. It counts as cell-based. As for the experimental part: The synergistic activity of the cleanser formulation was assessed using an in vitro suspension test representing in-use conditions. In-use conditions represent the actual consumer use of the cleanser (e.g., dissolved tablet concentrations, temperature, and contact time) versus Candida albicans as a relevant oral organism for the denture wearer. To 150 mL of 40° C. water at time zero, the denture cleanser was added, followed by 2 mL of a 10^8 cfu/mL test suspension. After 5 minutes, an aliquot of the solution was removed, neutralized and plated in order to evaluate the amount or log reduction of the test organism.

For the compound `[H]/N=C(\N/C(=N/[H])NCCCCCCNC(=N)NC(=N)Nc1ccc(Cl)cc1)Nc1ccc(Cl)cc1` [Test Formulation 4, 1,6-di-4′-chlorophenyldiguanidohexane], the antimicrobial activity entry was “does not demonstrate any antimicrobial activity”.
